As a reminder, the EC50 is the concentration that produces a half-maximal response.

Our source for the EC50 values is patent US7741347B2, “Hepatitis C virus inhibitors” (Bristol-Myers Squibb Company, priority 2007, dated 2010).

The test system of the test is HCV 1b-377-neo replicon cells. Briefly: HCV replicon assay, wild-type cells. To be noted: read-out: EC50 against the HCV 1b genotype (Activity). Type of test: cell-based. As to the method: An HCV Replion assay was utilized in the present disclosure, and was prepared, conducted and validated as described in commonly owned PCT/US2006/022197 and in O'Boyle et. al. Antimicrob Agents Chemother. 2005 April; 49(4): 1346-53.
HCV 1b-377-neo replicon cells were used to test representative compounds described within this disclosure as were cells resistant to compound A due to a Y2065H mutation in NS5A (described in application PCT/US2006/022197). The compounds tested were determined to have an approximately 10-fold less inhibitory activity on cells resistant to compound A than wild-type cells indicating a related mechanism of action between the two compound series. Thus, the compounds can be effective to be effective to inhibit the function of the HCV NS5A protein and are understood to be as effective in combinations as previously described in application PCT/US2006/022197 and commonly owned WO/04014852. Further, the compounds are effective against the HCV 1b genotype. It should also be understood that the compounds of the present disclosure can inhibit multiple genotypes of HCV. […] Ranges are as follows: A=1-10 μM; B=100-999 nM; C=1-99 nM; and D=10-999 pM.
A general note: A replicon is a self-replicating genome or part of one, used to study replication in cells.

Where two headings read alike, the source gives them in different places.

With `CN(C)[C@@H](C(=O)N1CCC[C@H]1c1nnc(-c2ccc(-c3ccc(-c4nnc([C@@H]5CCCN5C(=O)[C@@H](c5ccccc5)N(C)C)[nH]4)cc3)cc2)[nH]1)c1ccccc1` [Example 35], the EC50 (Hepatitis C virus) lay within 1000 to 99000 pM.

`COC(=O)N[C@@H](C(=O)N1CCC[C@H]1c1ncc(-c2ccc(-c3ccc(-c4nnc([C@@H]5CCCN5C(=O)[C@H](NC(=O)OC)c5ccccc5)[nH]4)cc3)cc2)[nH]1)c1ccccc1` [Example 33]: the EC50 (Hepatitis C virus) lay in the range of 10 to 999 pM.

Turning to `COC(=O)N[C@@H](C(=O)N1CCC[C@H]1c1nnc(-c2ccc(-c3ccc(-c4nnc([C@@H]5CCCN5C(=O)[C@H](NC(=O)OC)c5ccccc5)[nH]4)cc3)cc2)[nH]1)c1ccccc1` [Example 34], the EC50 (Hepatitis C virus) was 10 to 999 pM.

In the case of `CN(C)[C@@H](C(=O)N1CCC[C@H]1c1cc(-c2ccc(-c3ccc(-c4cnc([C@@H]5CCCN5C(=O)[C@@H](c5ccccc5)N(C)C)[nH]4)cc3)cc2)n[nH]1)c1ccccc1` [Example 32], the EC50 (Hepatitis C virus) fell in the range of 10 to 999 pM.

On to `COC(=O)N[C@@H](C(=O)N1CCC[C@H]1c1cc(-c2ccc(-c3ccc(-c4cnc([C@@H]5CCCN5C(=O)[C@H](NC(=O)OC)c5ccccc5)[nH]4)cc3)cc2)n[nH]1)c1ccccc1` [Example 31], for which the EC50 (Hepatitis C virus) is 10 to 999 pM.

Consider `COC(=O)N[C@H](C(=O)N1CCC[C@H]1c1cnc(-c2ccc(-c3ccc(-c4cnc([C@@H]5CCCN5C(=O)[C@@H](NC(=O)OC)[C@@H](C)OC)o4)cc3)cc2)[nH]1)[C@@H](C)OC` [Example 38], for which, for the setting “Hepatitis C virus”, the EC50 was 10 to 999 pM.

Turning to `COC(=O)NC(C(=O)N1CCCC1c1cc(-c2ccc(-c3ccc(-c4cc(C5CCCN5C(=O)C(NC(=O)OC)c5ccccc5)n[nH]4)cc3)cc2)[nH]n1)c1ccccc1` [Example 30, Dimethyl-(1R,1′R)-2,2′-((2S,2′S)-2,2′-(5,5′-(biphenyl-4,4′-diyl)bis(1H-pyrazole-5,3-diyl))bis(pyrrolidine-2,1-diyl))bis(2-oxo-1-phenylethane-2,1-diyl)dicarbamate], the EC50 lay within 1000 to 99000 pM.
